Like-named read-outs stand apart in the source and are kept apart here.
Legend:
isolated gastric glands = settings: for reduction in secretagogue induced proton secretion (proton extrusion, acid production): Carbachol 200 μM, means from 5 rats; for inhibitory effect on secretagogue induced acid secretion, in words: rat gastric glands
Method: (§1) In this series of studies we used glands from rats that have been fasted for 18 hours with free access to water to reduce basal acid secretion to zero. Following isolation the glands were placed in a perfusion chamber that was maintained at 37° C. Prior to exposure to the Zn solution the glands were loaded with the Fluorescent reagent BCECF to monitor intracellular pH, this is based on technology we have used in the lab. In these studies we stimulated acid secretion by exposing the individual glands to 200 μM Carbachol a well characterized activator of acid secretion. In parallel to these studies (Control glands) we exposed glands from the same animal to a solution that contained ZnSO4.7H2O. […] In subsequent studies we then reduced the concentration of ZnSO4.7H2O by an order of magnitude ([…]) and repeated the study. For each dose used a minimum of 5 animals was used. […] We reduced to a concentration of 0.03 μM.

isolated human glands = settings: for inhibitory effect on secretagogue induced acid secretion, in words: human gastric glands
Method: as §1
Note that doses of 300 μM and 3 μM were used. […] All data are the means from 5 separate human samples.

isolated stomachs = settings: simultaneous with secretagogue, 15 minute exposure, fasted rats
Method: We took age and sex matched animals for these studies. The stomach was excised and perfused with 0.5 ml of nonbuffered saline solution in vitro with a solution of either 200 μM Carbachol or ZnSO4.7H2O+200 μM Carbachol following a 15 minute perfusion time we collected the effluent from the stomach and measure intragastric pH in this fluid following a protocol that we have used in the past.

isolated glands = tested on: isolated glands
Method: In this series of studies Rats were given free access to water and normal rat chow for a period of 5 days. In one group 30 μM ZnSO4.7H2O was added to the drinking water so that the animals are getting a constant exposure of ZnSO4.7H2O. At the end of the 5 day period the animals were sacrificed and the stomach removed. We examined how these glands performed to addition of a secretagogue as previously defined in Protocol 1. In the second group we repeated the study giving 3 μM ZnSO4.7H2O for the 5 day period while allowing normal access to food and water.

[1] = listed as zinc sulfate heptahydate

## O.O.O.O.O.O.O.O=S(=O)([O-])[O-].[Zn+2] [zinc sulfate heptahydrate]
Isolated gastric glands; about 0.3 μM to about 300 μM, more often about 3 μM to about 30 μM
  inhibiting acid secretion in the stomach: almost complete inhibition
Isolated gastric glands; dose of 0.03 μM
  reduction in secretagogue induced proton secretion (proton extrusion, acid production): p<0.03 significant reduction
Isolated gastric glands; dose of 0.03 μM, listed as ZnSO4.7H2O
  reduction in secretagogue induced proton secretion (proton extrusion, acid production): modest yet significant inhibition of acid secretion (p<0.03)
Isolated gastric glands; doses from 300 to 0.3 μM
  reduction in secretagogue induced proton secretion (proton extrusion, acid production): significant p<0.0001 reduction
Isolated gastric glands; doses from 300 to 0.3 μM, listed as ZnSO4.7H2O
  reduction in secretagogue induced proton secretion (proton extrusion, acid production): highly significant inhibition of proton extrusion (p<0.0001)
Isolated gastric glands; listed as ZnSO4.7H2O
  inhibitory effect on secretagogue induced acid secretion, in words: potent inhibitor
Isolated gastric glands; [1]
  inhibitory effect on secretagogue induced acid secretion, in words: abolishing the activity of the gastric H^+,K^+-ATPase
Isolated human glands; doses of 300 μM and 3 μM, Carbachol, means from 5 human samples
  inhibition of proton extrusion (acid secretion): highly significant inhibition of proton extrusion (p<0.0001)
Isolated human glands; listed as ZnSO4.7H2O
  inhibitory effect on secretagogue induced acid secretion, in words: potent inhibitor
Isolated human glands; [1]
  inhibitory effect on secretagogue induced acid secretion, in words: abolishing the activity of the gastric H^+,K^+-ATPase
Isolated stomachs; 3 μM, listed as ZnSO4Heptahydrate
  elevation in gastric pH: ≥ 1 pH unit
Isolated stomachs; 3 μM, listed as ZnSO4.7H2O
  elevation in gastric pH: 1 pH unit
Isolated stomachs; 30 μM, listed as ZnSO4Heptahydrate
  elevation in gastric pH: ≥ 1 pH unit
Isolated stomachs; 30 μM, listed as ZnSO4.7H2O
  elevation in gastric pH: 1 pH unit
Isolated glands; 3 μM in drinking water for 7 days, versus blank water
  basal acid secretion in the gland: slightly higher than blank water
Isolated glands; 3 μM in drinking water for 7 days, versus matched controls
  Carbachol (secretagogue) induced acid secretion: marked suppression
Isolated glands; 30 μM, 1 week ad lib access
  basal acid secretion in the gland: no basal acid secretion
  secretagogue (carbachol) induced acid secretion in the gland: no effect
